{"source": "patent EP2363494A9", "about": "“Improvement of transfection results of non-viral gene delivery systems by influencing the congenital immune system” (Biontex Laboratories Gmbh, priority 2007, dated 2009)", "key": {"[1]": {"system": "HeLa-Luc Zellen", "assay": "Trypan blue vitality determination after siRNA transfection in presence of TLR7/8 agonists (Beispiel 9)", "type": "cell-based", "conditions": "Trypanblau after 48 h, Blindprobe 95,9", "procedure": "Zunächst werden die ersten 5 Wells der ersten 3 Reihen einer 48 Well Platte mit jeweils 30 µl PBS gefüllt. Die Stocklösung der anti-Luciferase-siRNA und der non-specific-control-siRNA wird mit PBS auf eine Konzentration von 1 pmol/10 µl eingestellt. Anschließend werden jeweils 10 µl der Arbeitslösung der anti-Luciferase-siRNA in die ersten 3 Wells der der ersten drei Reihen der 48 Well Platte pipettiert. In die jeweils vierten Wells werden jeweils 10 µl der Arbeitslösung der non-specific-control-siRNA pipettiert. Das Metafectene Pro Reagenz wird mit PBS 1:300 verdünnt. Von dieser Verdünnung werden jeweils 20 µl in jedes Well mit siRNA gegeben. Anschließend werden die Lipoplexe für 20 Minuten bei Raumtemperatur inkubiert. Danach werden pro Well 250 µl Zellsuspension zugegeben. Analog wird eine zweite Platte bestückt.\nIn die ersten 2 Spalten der beiden 48 Well Platte werden 2 verschiedene Agonisten hinzugegeben. Dabei werden 3 verschiedene Arbeitskonzentrationen der Agonisten verwendet. Die Agonisten liegen lyophilisiert vor. Sie werden mit endotoxin-freiem Wasser zu Stocklösungen mit der Konzentration 100µg/ml gelöst. Die Stocklösungen werden jeweils 1:10 mit Wasser zu Arbeitslösungen verdünnt.\nVon der ssRNA40/LyoVec-Arbeitslösung werden in B1 0,78 µl (=0,5 µg/ml Endkonzentration ssRNA40), in B2 15,5 µl (=5µg/ml) und in B3 31µl (=10µg/ml) pipettiert. Nach der Zugabe der Agonisten werden die beiden 48 Well Platten für 48 Stunden im CO2-Inkubator inkubiert.\nNach einer Inkubationszeit von 48 Stunden werden die Zellen einer Platte trypsiniert und mittels einer Neubauer-Zählkammer eine Vitalitätbestimmung mit Trypanblau für jedes Well durchgeführt.\nEs wurden zwischen 40 und 70 Zellen ausgewertet."}, "[2]": {"system": "HeLa-Luc Zellen", "assay": "Luciferase assay after anti-Luciferase siRNA transfection in presence of TLR7/8 agonists (Beispiel 9)", "type": "cell-based", "conditions": "48 h", "experimental": "Anschließend werden 120 µl Luciferase-Lysispuffer hinzugegeben.\nAlle Messungen wurden dreifach durchgeführt.\nVon der Imiquimod-Arbeitslösung werden in A1 0,78 µl (=0,25 µg/ml Endkonzentration), in A2 15,5 µl (=5µg/ml) und in A3 31 µl (=10µg/ml) pipettiert. Von der ssRNA40/LyoVec-Arbeitslösung werden in B1 0,78 µl (=0,5 µg/ml Endkonzentration ssRNA40), in B2 15,5 µl (=5µg/ml) und in B3 31µl (=10µg/ml) pipettiert. Nach der Zugabe der Agonisten werden die beiden 48 Well Platten für 48 Stunden im CO2-Inkubator inkubiert."}, "[3]": {"system": "HeLa-Luc Zellen", "assay": "Luciferase assay after anti-Luciferase siRNA transfection in presence of kinase inhibitors (Beispiel 8)", "conditions": "2 h before anti-Luciferase-siRNA/Metafectene Pro lipoplex"}, "[4]": {"system": "HeLa Zellen", "conditions": "Vorinkubationszeit 2h, inhibitor replaced and transfection repeated on day 3, Entwicklungszeit 10 min, 0µM well 0,63", "procedure": "Die Effizienz der Transfektion wird mit dem β-Galaktosidase Assay Kit nach Vorgaben des Herstellers durchgeführt. Die Platten werden so lange entwickelt bis im Mikroplate-Reader eine Gelbfärbung mit einer Absorption von 1-2 gemessen wird und anschließend sofort gestoppt. Die Inkubationszeit wird anschließend notiert. Die Werte werden mit dem Mikroplate-Reader ausgelesen, und der Mittelwert gebildet.\n1. Tag: Es werden HeLa Zellen in eine 48 Well Platte ausgesät.\n1 mg Inhibitor wird in 100 µl DMSO gelöst (Stocklösung). Anschließend wird mit PBS 1:20 verdünnt (Arbeitslösung). Anschließend werden die Wells der 48 Well Platte mit folgenden Mengen Inhibitor versorgt:\nAnschließend werden die Lipoplexe hergestellt. […] Jetzt werden beide Lösungen gemischt und 15 min inkubiert. Am Ende werden jeweils 50 µl der Lipoplexlösung in jedes Well gegeben.\nDie Schritte Lipoplexherstellung und Transfektion werden ohne Inkubationszeit wiederholt.\nAnalog Beispiel 1 (mit halben Mengen)"}}, "note": "Like-named read-outs stand apart in the source and are kept apart here.", "data": [{"compound": "CC(C)Cn1cnc2c(N)nc3ccccc3c21", "note": "[Imiquimod, 1-(2-methylpropyl)-1H-imidazol[4,5-c]quinolin-4-amine]", "values": [{"measurement": "Vitalität", "setting": "[1]; Imiquimod 0,5µg/ml + anti-Luciferase-siRNA/Metafectene Pro", "value": "98,6%"}, {"measurement": "Vitalität", "setting": "[1]; Imiquimod 5µg/ml + anti-Luciferase-siRNA/Metafectene Pro", "value": "88,7%"}, {"measurement": "Vitalität", "setting": "[1]; Imiquimod 10µg/ml + anti-Luciferase-siRNA/Metafectene Pro", "value": "88,6%"}, {"measurement": "Luciferase Assay, Mittelwert von 3x3", "setting": "[2]; Imiquimod 0,25 µg/ml Endkonzentration (0,5µg/ml in the 30th table) + anti-Luciferase-siRNA/Metafectene Pro, same plate row: siRNA alone 1604, non-specific control 3016, blank 2936", "value": 676, "unit": "RLU/µl Zellextrakt/sec"}, {"measurement": "Luciferase Assay, Mittelwert von 3x3", "setting": "[2]; Imiquimod 5µg/ml + anti-Luciferase-siRNA/Metafectene Pro, same plate row: siRNA alone 1302, non-specific control 2753, blank 2673", "value": 349, "unit": "RLU/µl Zellextrakt/sec"}, {"measurement": "Luciferase Assay, Mittelwert von 3x3", "setting": "[2]; Imiquimod 10µg/ml + anti-Luciferase-siRNA/Metafectene Pro, same plate row: siRNA alone 1481, non-specific control 2822, blank 2476", "value": 116, "unit": "RLU/µl Zellextrakt/sec"}]}, {"compound": "C[S+]([O-])c1ccc(-c2nc(-c3ccncc3)c(-c3ccc(F)cc3)[nH]2)cc1", "note": "(stereo not shown) [SB203580]", "values": [{"measurement": "Luciferase Assay, Mittelwert von 3x3 Messungen", "setting": "[3]; SB203580 5µM, one transfection, 0µM 1027, non-specific-control-siRNA 2029, untransfected 2504", "value": 693, "unit": "RLU/µl Zellextrakt/sec"}, {"measurement": "Luciferase Assay, Mittelwert von 3x3 Messungen", "setting": "[3]; SB203580 5µM, transfection repeated on day 3, 0µM 976, non-specific-control-siRNA 2135, untransfected 2531", "value": 696, "unit": "RLU/µl Zellextrakt/sec"}, {"measurement": "Luciferase Assay, Mittelwert von 3x3 Messungen", "setting": "[3]; SB203580 10µM, one transfection, 0µM 1027, non-specific-control-siRNA 2029, untransfected 2504", "value": 747, "unit": "RLU/µl Zellextrakt/sec"}, {"measurement": "Luciferase Assay, Mittelwert von 3x3 Messungen", "setting": "[3]; SB203580 10µM, transfection repeated on day 3, 0µM 976, non-specific-control-siRNA 2135, untransfected 2531", "value": 656, "unit": "RLU/µl Zellextrakt/sec"}, {"measurement": "Luciferase Assay, Mittelwert von 3x3 Messungen", "setting": "[3]; SB203580 20µM, one transfection, 0µM 1027, non-specific-control-siRNA 2029, untransfected 2504", "value": 630, "unit": "RLU/µl Zellextrakt/sec"}, {"measurement": "Luciferase Assay, Mittelwert von 3x3 Messungen", "setting": "[3]; SB203580 20µM, transfection repeated on day 3, 0µM 976, non-specific-control-siRNA 2135, untransfected 2531", "value": 617, "unit": "RLU/µl Zellextrakt/sec"}, {"measurement": "Luciferase Assay, Mittelwert von 3x3 Messungen", "setting": "[3]; SB203580 30µM, one transfection, 0µM 1027, non-specific-control-siRNA 2029, untransfected 2504", "value": 671, "unit": "RLU/µl Zellextrakt/sec"}, {"measurement": "Luciferase Assay, Mittelwert von 3x3 Messungen", "setting": "[3]; SB203580 30µM, transfection repeated on day 3, 0µM 976, non-specific-control-siRNA 2135, untransfected 2531", "value": 587, "unit": "RLU/µl Zellextrakt/sec"}, {"measurement": "Luciferase Assay, Mittelwert von 3x3 Messungen", "setting": "[3]; SB203580 40µM, one transfection, 0µM 1027, non-specific-control-siRNA 2029, untransfected 2504", "value": 669, "unit": "RLU/µl Zellextrakt/sec"}, {"measurement": "Luciferase Assay, Mittelwert von 3x3 Messungen", "setting": "[3]; SB203580 40µM, transfection repeated on day 3, 0µM 976, non-specific-control-siRNA 2135, untransfected 2531", "value": 610, "unit": "RLU/µl Zellextrakt/sec"}]}, {"compound": "N#CC(=C(/N)Sc1ccccc1N)/C(C#N)=C(/N)Sc1ccccc1N", "note": "[U0126, 1,4-Diamino-2,3-dicyano-1,4-bis(o-amionophenylmercapto)butadiene]", "values": [{"measurement": "Luciferase Assay, Mittelwert von 3x3 Messungen", "setting": "[3]; U0126 5µM, one transfection, 0µM 1157, non-specific-control-siRNA 1829, untransfected 1674", "value": 375, "unit": "RLU/µl Zellextrakt/sec"}, {"measurement": "Luciferase Assay, Mittelwert von 3x3 Messungen", "setting": "[3]; U0126 5µM, transfection repeated on day 3, 0µM 1001, non-specific-control-siRNA 2290, untransfected 2249", "value": 641, "unit": "RLU/µl Zellextrakt/sec"}, {"measurement": "Luciferase Assay, Mittelwert von 3x3 Messungen", "setting": "[3]; U0126 10µM, one transfection, 0µM 1157, non-specific-control-siRNA 1829, untransfected 1674", "value": 567, "unit": "RLU/µl Zellextrakt/sec"}, {"measurement": "Luciferase Assay, Mittelwert von 3x3 Messungen", "setting": "[3]; U0126 10µM, transfection repeated on day 3, 0µM 1001, non-specific-control-siRNA 2290, untransfected 2249", "value": 162, "unit": "RLU/µl Zellextrakt/sec"}, {"measurement": "Luciferase Assay, Mittelwert von 3x3 Messungen", "setting": "[3]; U0126 25µM, one transfection, 0µM 1157, non-specific-control-siRNA 1829, untransfected 1674", "value": 268, "unit": "RLU/µl Zellextrakt/sec"}, {"measurement": "Luciferase Assay, Mittelwert von 3x3 Messungen", "setting": "[3]; U0126 25µM, transfection repeated on day 3, 0µM 1001, non-specific-control-siRNA 2290, untransfected 2249", "value": 179, "unit": "RLU/µl Zellextrakt/sec"}, {"measurement": "Luciferase Assay, Mittelwert von 3x3 Messungen", "setting": "[3]; U0126 50µM, one transfection, 0µM 1157, non-specific-control-siRNA 1829, untransfected 1674", "value": 193, "unit": "RLU/µl Zellextrakt/sec"}, {"measurement": "Luciferase Assay, Mittelwert von 3x3 Messungen", "setting": "[3]; U0126 50µM, transfection repeated on day 3, 0µM 1001, non-specific-control-siRNA 2290, untransfected 2249", "value": 171, "unit": "RLU/µl Zellextrakt/sec"}, {"measurement": "Luciferase Assay, Mittelwert von 3x3 Messungen", "setting": "[3]; U0126 75µM, one transfection, 0µM 1157, non-specific-control-siRNA 1829, untransfected 1674", "value": 260, "unit": "RLU/µl Zellextrakt/sec"}, {"measurement": "Luciferase Assay, Mittelwert von 3x3 Messungen", "setting": "[3]; U0126 75µM, transfection repeated on day 3, 0µM 1001, non-specific-control-siRNA 2290, untransfected 2249", "value": 103, "unit": "RLU/µl Zellextrakt/sec"}, {"measurement": "Absorption β-Galaktosidase Assay, Mittelwert von 3 Messungen", "setting": "[4]; 5µM inhibitor", "value": "0,72"}, {"measurement": "Absorption β-Galaktosidase Assay, Mittelwert von 3 Messungen", "setting": "[4]; 10µM inhibitor", "value": "0,92"}, {"measurement": "Absorption β-Galaktosidase Assay, Mittelwert von 3 Messungen", "setting": "[4]; 25µM inhibitor", "value": "0,79"}, {"measurement": "Absorption β-Galaktosidase Assay, Mittelwert von 3 Messungen", "setting": "[4]; 50µM inhibitor", "value": "0,90"}, {"measurement": "Absorption β-Galaktosidase Assay, Mittelwert von 3 Messungen", "setting": "[4]; 75µM inhibitor", "value": "0,97"}]}]}
